Some test systems named below: ACHN renal; CAKI-1 renal; DLD-1 colon; K-562 leukemia; KM20L2 colon; MCF7 breast; NCI-H226 lung; OVCAR-4 ovarian; SF-539 CNS; SNB-75 CNS.
Holding throughout (experiment): NCI-60 cell line screen, 48 h

Structures are written as SMILES. Where “and” joins values, the source holds several entries; their conditions need not be identical. Equal values may be shown once.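 Tested at 5 concentrations; 48 h exposure; 96-well plates; endpoints linearly interpolated, else capped at highest concentration. GI50 marks 50% less growth. TGI marks complete inhibition of growth.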 Bounds are passed on as bounds.

Turning to `Cn1nnc2c(C(N)=O)ncn2c1=O`, the TGI in the assay on ACHN renal, in the assay on CAKI-1 renal, with DLD-1 colon, with K-562 leukemia, in the assay on KM20L2 colon and in the assay on MCF7 breast was > 100 µM each time. Moreover, the TGI in the assay with NCI-H226 lung, in the assay on OVCAR-4 ovarian, in the assay on SF-539 CNS and in the assay with SNB-75 CNS was > 100 µM throughout.
In the case of `O=C(O)COc1ccc(C(=O)/C(SS/C(C(=O)c2ccc(OCC(=O)O)c(Cl)c2Cl)=C2\C=C(c3ccc(Br)cc3)SS2)=C2/C=C(c3ccc(Br)cc3)SS2)c(Cl)c1Cl`, the TGI was 22 µM with ACHN renal; 99.4 µM with CAKI-1 renal; > 63.2 µM with DLD-1 colon; > 100 µM in the assay with K-562 leukemia; > 100 µM in the assay with KM20L2 colon; 13.2 µM in the assay with MCF7 breast. The TGI is 42.1 µM in the assay on NCI-H226 lung, > 50.1 µM in the assay on OVCAR-4 ovarian, 26.2 µM with SF-539 CNS and 45.4 µM in the assay with SNB-75 CNS.
For the molecule `COc1cccc2c1[C@H]1CO[C@H]3C4C[C@H](C(=O)O)C([C@@H](C2)N13)N4C` (stereo not given in full), the GI50 in the assay on CAKI-1 renal was 2.17 µM and 2.9 µM; in the assay on DLD-1 colon it was 0.452 µM; with K-562 leukemia it was 0.397 µM; with MCF7 breast, 0.296 µM; with OVCAR-4 ovarian, 0.99 µM; with SF-539 CNS it was 0.684 µM. Moreover, the GI50 in the assay on SNB-75 CNS was 0.809 µM. For the same molecule, the TGI in the assay with CAKI-1 renal was 6.06 µM and 28.8 µM; with DLD-1 colon, 7.81 µM and 17.4 µM; in the assay on KM20L2 colon, 7.84 µM; with MCF7 breast, 10 µM; in the assay with NCI-H226 lung, 5.59 µM; with OVCAR-4 ovarian, 8.21 µM and 10.5 µM. Also, the TGI in the assay on SF-539 CNS is 2.62 µM and 2.04 µM; in the assay with SNB-75 CNS, 4.85 µM and 3.53 µM.
With `O=C(CCc1nc(=S)[nH][nH]1)Nc1cccc(C(F)(F)F)c1`, the TGI in the assay on ACHN renal, in the assay on CAKI-1 renal, in the assay with DLD-1 colon, in the assay on K-562 leukemia, in the assay with KM20L2 colon and in the assay on NCI-H226 lung was > 100 µM each time. Besides, the TGI in the assay with OVCAR-4 ovarian, with SF-539 CNS and with SNB-75 CNS was > 100 µM each time.
`CCC[CH2][Sn]([CH2]CCC)([O]C(=O)/C=C/c1ccccc1F)[O]C(=O)/C=C/c1ccccc1F`: the GI50 in the assay with ACHN renal was 0.797 µM; with CAKI-1 renal, 0.436 µM; in the assay with DLD-1 colon, 0.393 µM; with K-562 leukemia it was 0.232 µM; with KM20L2 colon, 1.34 µM; in the assay on NCI-H226 lung, 0.775 µM. Also, the GI50 was 1.45 µM in the assay on OVCAR-4 ovarian, 1.27 µM with SF-539 CNS and 0.692 µM in the assay on SNB-75 CNS. The TGI with ACHN renal was determined as 2.05 µM; in the assay on CAKI-1 renal, 1.79 µM; in the assay with DLD-1 colon it was 1.5 µM; in the assay with K-562 leukemia, 1.4 µM; with KM20L2 colon, 2.64 µM; in the assay on NCI-H226 lung, 2.04 µM. Also, the TGI with OVCAR-4 ovarian was 2.9 µM; in the assay with SF-539 CNS it was 2.56 µM; with SNB-75 CNS it was 2.06 µM.
In the case of `COc1ccc(Cc2nc3ccccc3s2)cc1OC`, the TGI in the assay on ACHN renal turned out to be 31 µM; in the assay with CAKI-1 renal, 31.3 µM; in the assay with DLD-1 colon it was 31.7 µM; in the assay on K-562 leukemia it was 49.6 µM; with KM20L2 colon, 36.5 µM; with NCI-H226 lung it was 45.7 µM. Moreover, the TGI in the assay with OVCAR-4 ovarian stood at 37.7 µM; in the assay with SF-539 CNS, 31.2 µM; with SNB-75 CNS, 36.8 µM.
As to `O=NN(CCCl)C(=O)NC1CCC(=O)NC1=O` (stereo not given), the TGI with ACHN renal is > 1250 µM; with CAKI-1 renal, 659 µM; in the assay with DLD-1 colon, 1050 µM; in the assay on K-562 leukemia, 595 µM; in the assay with KM20L2 colon, > 1250 µM; in the assay on MCF7 breast, > 1190 µM. Also, the TGI with NCI-H226 lung was 583 µM; in the assay on OVCAR-4 ovarian, > 993 µM; in the assay on SF-539 CNS, 309 µM; in the assay on SNB-75 CNS it was 396 µM.
With `Nc1ncnc2c1nnn2C1C=C(CO)C(O)C1O` (stereo not given), the TGI in the assay on ACHN renal was > 100 µM; with CAKI-1 renal, > 100 µM; with DLD-1 colon, > 92.6 µM; in the assay with K-562 leukemia, > 100 µM; in the assay on KM20L2 colon, > 100 µM; in the assay on NCI-H226 lung, > 100 µM. Besides, the TGI in the assay on OVCAR-4 ovarian is > 100 µM; in the assay with SF-539 CNS it was > 100 µM; in the assay with SNB-75 CNS, > 96.1 µM.

The values are drawn from PubChem BioAssay (NCI).
